Laboratory results reported in PubChem BioAssay (NCI).
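Assay format: 96-well plates, 48-hour exposure. TGI is the concentration that stops growth completely.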

Assays:
Assay in all cases: NCI-60 cell line screen, 48 h
OVCAR-3 ovarian = test system: OVCAR-3 ovarian
SK-MEL-5 melanoma = test system: SK-MEL-5 melanoma
HOP-92 NSCLC = test system: HOP-92 NSCLC
HS 578T breast = test system: HS 578T breast
NCI/ADR-RES ovarian = test system: NCI/ADR-RES ovarian
MDA-MB-435 = test system: MDA-MB-435
NCI-H226 lung = test system: NCI-H226 lung
786-0 renal = test system: 786-0 renal
UACC-62 melanoma = test system: UACC-62 melanoma
HL-60(TB) leukemia = test system: HL-60(TB) leukemia
CAKI-1 renal = test system: CAKI-1 renal
OVCAR-4 ovarian = test system: OVCAR-4 ovarian
SF-295 CNS = test system: SF-295 CNS
OVCAR-8 ovarian = test system: OVCAR-8 ovarian
HCC-2998 colon = test system: HCC-2998 colon
MDA-N = test system: MDA-N
RXF 393 renal = test system: RXF 393 renal
OVCAR-5 ovarian = test system: OVCAR-5 ovarian
NCI-H522 lung = test system: NCI-H522 lung
U251 CNS = test system: U251 CNS
COLO 205 colon = test system: COLO 205 colon
PC-3 prostate = test system: PC-3 prostate
TK-10 renal = test system: TK-10 renal
DU-145 prostate = test system: DU-145 prostate
T-47D breast = test system: T-47D breast
IGROV1 ovarian = test system: IGROV1 ovarian
SK-MEL-28 melanoma = test system: SK-MEL-28 melanoma
UACC-257 melanoma = test system: UACC-257 melanoma
UO-31 renal = test system: UO-31 renal
MDA-MB-231 breast = test system: MDA-MB-231 breast
CCRF-CEM leukemia = test system: CCRF-CEM leukemia
HOP-62 NSCLC = test system: HOP-62 NSCLC
LOX IMVI melanoma = test system: LOX IMVI melanoma
KM12 colon = test system: KM12 colon
SN12C renal = test system: SN12C renal
NCI-H23 lung = test system: NCI-H23 lung
K-562 leukemia = test system: K-562 leukemia
SNB-75 CNS = test system: SNB-75 CNS
EKVX NSCLC = test system: EKVX NSCLC
SW-620 colon = test system: SW-620 colon
SK-OV-3 ovarian = test system: SK-OV-3 ovarian
A549 NSCLC = test system: A549 NSCLC
SF-268 CNS = test system: SF-268 CNS
HCT-15 colon = test system: HCT-15 colon
ACHN renal = test system: ACHN renal
RPMI-8226 leukemia = test system: RPMI-8226 leukemia
MOLT-4 leukemia = test system: MOLT-4 leukemia
HT29 colon = test system: HT29 colon
SR leukemia = test system: SR leukemia
A498 renal = test system: A498 renal
M14 melanoma = test system: M14 melanoma
SK-MEL-2 melanoma = test system: SK-MEL-2 melanoma
HCT-116 colon = test system: HCT-116 colon
SNB-19 CNS = test system: SNB-19 CNS
BT-549 breast = test system: BT-549 breast
NCI-H460 lung = test system: NCI-H460 lung
SF-539 CNS = test system: SF-539 CNS
MALME-3M melanoma = test system: MALME-3M melanoma
MCF7 breast = test system: MCF7 breast

Measured: TGI

O=C1OC(=O)C2=C1C(c1cccs1)C=C(c1cccnc1)N2c1ccncc1 (configuration not stated)
56.8 µM: NCI-H226 lung
84.6 µM: K-562 leukemia
31.8 µM: COLO 205 colon
68.5 µM: SK-OV-3 ovarian
82.3 µM: NCI/ADR-RES ovarian
27.3 µM: HCT-116 colon
36.1 µM: BT-549 breast
27.1 µM: HOP-92 NSCLC | HCC-2998 colon
33.9 µM: MDA-N
41.7 µM: HOP-62 NSCLC
29.5 µM: PC-3 prostate
30.3 µM: UO-31 renal
8.73 µM: SR leukemia
30.1 µM: HCT-15 colon | ACHN renal
32.9 µM: 786-0 renal | SN12C renal
30.4 µM: HT29 colon
39.6 µM: MDA-MB-231 breast
64.4 µM: HL-60(TB) leukemia
29.3 µM: OVCAR-3 ovarian | IGROV1 ovarian
32.5 µM: SK-MEL-2 melanoma
71.4 µM: HS 578T breast
34.7 µM: NCI-H23 lung
32.1 µM: NCI-H460 lung
35.3 µM: SF-295 CNS
24.7 µM: UACC-257 melanoma
30.2 µM: DU-145 prostate
60.2 µM: RPMI-8226 leukemia
48.7 µM: OVCAR-8 ovarian
40.8 µM: A549 NSCLC
38.9 µM: SNB-19 CNS
37.3 µM: UACC-62 melanoma
28.5 µM: OVCAR-5 ovarian
49.9 µM: MDA-MB-435
35.8 µM: SNB-75 CNS
51.5 µM: A498 renal
73.8 µM: MOLT-4 leukemia
29.4 µM: NCI-H522 lung
34.5 µM: RXF 393 renal
27 µM: LOX IMVI melanoma | M14 melanoma
35.4 µM: U251 CNS
50 µM: CCRF-CEM leukemia
48.2 µM: SF-268 CNS
58.1 µM: SW-620 colon
31.6 µM: TK-10 renal
75.2 µM: SK-MEL-28 melanoma
29.7 µM: CAKI-1 renal
26.1 µM: KM12 colon
40.2 µM: SK-MEL-5 melanoma
31.4 µM: EKVX NSCLC
37 µM: T-47D breast
36 µM: OVCAR-4 ovarian

CN(C)CCNC(=O)c1cc([N+](=O)[O-])cn1C
not listed: HOP-92 NSCLC | NCI/ADR-RES ovarian
> 100 µM: all other assays above

COC(=O)CSC1CC(=O)c2c(Cl)sc(Cl)c21 (configuration not stated)
not listed: OVCAR-3 ovarian | NCI/ADR-RES ovarian | NCI-H226 lung | HL-60(TB) leukemia | RPMI-8226 leukemia | A498 renal | SF-539 CNS
> 100 µM: all other assays above

CN(C)CCNC(=O)c1cnn(C)c1[N+](=O)[O-]
47.8 µM: COLO 205 colon
36.1 µM: MALME-3M melanoma
70.6 µM: OVCAR-3 ovarian
not listed: HOP-92 NSCLC | NCI/ADR-RES ovarian
> 100 µM: all other assays above

O=C1OC(c2ccccc2)=N/C1=C\c1ccc(F)cc1
not listed: SF-295 CNS | SF-539 CNS | MALME-3M melanoma | MCF7 breast
> 100 µM: all other assays above
